According to BindingDB's records for doi:10.1016/j.bmcl.2015.05.094 (Orleans University, 2015):

Assay: Antagonist activity at human alpha-7 nicotinic acetylcholine receptor expressed in rat GH3 cells assessed as inhibition of epibatidine-induced Ca2+ influx preincubated for 5 mins followed by epibatidine induction measured for 3 mins by fluorescence assay

COc1ccc(CC2C[N+]3(C)CCC2CC3)cc1 (stereo unspecified)
IC50: 12.3 µM
